Laboratory results: the supplement of paper PMC10307832

Experiments:
Experiment in all cases: relative viability (nuclei count vs DMSO), 5 days (fraction); higher = more cells survive
Lapatinib + Trametinib = compound: CS(=O)(=O)CCNCc1ccc(-c2ccc3ncnc(Nc4ccc(OCc5cccc(F)c5)c(Cl)c4)c3c2)o1 [Lapatinib] + CC(=O)Nc1cccc(-n2c(=O)n(C3CC3)c(=O)c3c(Nc4ccc(I)cc4F)n(C)c(=O)c(C)c32)c1 [Trametinib] (partner 0.02 µM)
Outline: (§1)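 Relative viability divides the nuclei count in treated wells by that in vehicle wells. Lung cancer cell lines were seeded in 1536-well plates, dosed by pin tool the next day, and fixed and stained after 5 days in one step with final 0.05% Triton X-100, 1% formaldehyde and 1 ug/ml Hoechst. Dosing was a single drug or a fixed anchor-drug dose plus five library-drug doses (not always all listed) in √10 steps, and values are medians of duplicate plates imaged at 4×.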

Lapatinib + OSI-027 = compound: CS(=O)(=O)CCNCc1ccc(-c2ccc3ncnc(Nc4ccc(OCc5cccc(F)c5)c(Cl)c4)c3c2)o1 [Lapatinib] + COc1cccc2cc(-c3nc([C@H]4CC[C@H](C(=O)O)CC4)n4ncnc(N)c34)[nH]c12 [OSI-027] (partner 0.5 µM)
Outline: as §1

Lapatinib + Alpelisib = compound: CS(=O)(=O)CCNCc1ccc(-c2ccc3ncnc(Nc4ccc(OCc5cccc(F)c5)c(Cl)c4)c3c2)o1 [Lapatinib] + Cc1nc(NC(=O)N2CCC[C@H]2C(N)=O)sc1-c1ccnc(C(C)(C)C(F)(F)F)c1 [Alpelisib] (partner 2 µM)
Outline: as §1

Lapatinib + Olaparib = compound: CS(=O)(=O)CCNCc1ccc(-c2ccc3ncnc(Nc4ccc(OCc5cccc(F)c5)c(Cl)c4)c3c2)o1 [Lapatinib] + O=C(c1cc(Cc2n[nH]c(=O)c3ccccc23)ccc1F)N1CCN(C(=O)C2CC2)CC1 [Olaparib] (partner 8 µM)
Outline: as §1

Row | Cell Line | relative viability (Lapatinib + Trametinib; first compound 0.06325 µM) | relative viability (Lapatinib + Trametinib; first compound 0.2 µM) | relative viability (Lapatinib + Trametinib; first compound 0.6325 µM) | relative viability (Lapatinib + Trametinib; first compound 2 µM) | relative viability (Lapatinib + OSI-027; first compound 0.02 µM) | relative viability (Lapatinib + OSI-027; first compound 0.06325 µM) | relative viability (Lapatinib + OSI-027; first compound 0.2 µM) | relative viability (Lapatinib + OSI-027; first compound 0.6325 µM) | relative viability (Lapatinib + OSI-027; first compound 2 µM) | relative viability (Lapatinib + Alpelisib; first compound 0.06325 µM) | relative viability (Lapatinib + Alpelisib; first compound 0.2 µM) | relative viability (Lapatinib + Alpelisib; first compound 0.6325 µM) | relative viability (Lapatinib + Alpelisib; first compound 2 µM) | relative viability (Lapatinib + Olaparib; first compound 0.06325 µM) | relative viability (Lapatinib + Olaparib; first compound 0.2 µM) | relative viability (Lapatinib + Olaparib; first compound 0.6325 µM) | relative viability (Lapatinib + Olaparib; first compound 2 µM) | relative viability (Lapatinib + Trametinib; first compound 0.02 µM) | relative viability (Lapatinib + Olaparib; first compound 0.02 µM) | relative viability (Lapatinib + Alpelisib; first compound 0.02 µM)
1 | HOP-62 | 0.378 | 0.343 | 0.472 | 0.293 | 0.486 | 0.756 | 0.89 | 0.866 | 0.914 | 0.618 | 0.861 | 1.14 | 0.856 | 0.4 | 0.59 | 0.328 | 0.369 | – | – | –
2 | LCLC-103H | 0.641 | 0.664 | 0.668 | 0.631 | 0.409 | 0.372 | 0.429 | 0.417 | 0.436 | 0.882 | 0.924 | 0.848 | 0.92 | 0.664 | 0.762 | 0.719 | 0.762 | 0.659 | 0.786 | –
3 | Calu-6 | – | – | – | – | – | – | – | – | – | 0.93 | 1.06 | 1.01 | 0.894 | 0.555 | 0.589 | 0.525 | 0.447 | – | 0.612 | 0.919
4 | NCI-H1650 | 0.516 | 0.514 | 0.46 | 0.444 | 0.437 | 0.456 | 0.59 | 0.555 | 0.338 | – | – | – | – | 0.847 | 0.767 | 0.802 | 0.621 | 0.568 | 0.73 | –
5 | NCI-H1703 | – | – | – | – | – | – | – | – | – | 0.33 | 0.325 | 0.398 | 0.343 | 0.489 | 0.392 | 0.595 | 0.383 | – | 0.312 | 0.289
6 | LK-2 | – | 0.782 | 0.663 | 0.832 | 0.217 | – | 0.228 | 0.238 | 0.228 | – | 0.938 | 1.13 | 1.01 | – | 0.78 | 0.702 | 0.859 | 0.858 | 0.598 | –
7 | LCLC-97TM1 | 0.131 | 0.205 | 0.181 | 0.137 | – | – | 0.564 | 0.497 | 0.503 | – | 0.232 | 0.284 | 0.257 | 0.342 | 0.417 | 0.387 | 0.345 | – | – | –
8 | NCI-H1793 | 0.416 | 0.469 | 0.406 | 0.394 | – | 0.143 | 0.235 | 0.167 | 0.16 | – | – | 0.563 | 0.384 | 0.363 | 0.598 | 0.537 | 0.449 | – | – | –
9 | SW 900 | 0.829 | 0.785 | 0.771 | 0.689 | – | 0.576 | 0.532 | 0.496 | 0.488 | – | – | – | – | 0.78 | 0.574 | 0.864 | 0.56 | – | – | –
10 | SK-MES-1 | 0.446 | 0.425 | 0.339 | 0.275 | 0.472 | 0.453 | 0.6 | 0.578 | 0.256 | – | 0.709 | 0.629 | 0.33 | 0.699 | 0.569 | 0.464 | 0.221 | 0.512 | 0.726 | 0.698
11 | NCI-H2023 | 0.397 | 0.429 | 0.433 | 0.328 | 0.379 | – | 0.337 | 0.382 | 0.177 | 0.576 | 0.528 | 0.553 | 0.378 | 0.455 | 0.436 | 0.444 | 0.397 | – | 0.435 | 0.53
12 | ChaGo-K-1 | 0.918 | 0.9 | 0.868 | 0.894 | 0.341 | 0.391 | 0.585 | 0.53 | 0.462 | – | – | – | – | 0.471 | 0.478 | 0.431 | 0.396 | 0.868 | 0.418 | –
13 | IA-LM | – | – | – | – | – | – | – | – | – | 0.66 | 0.76 | 0.763 | 0.792 | 0.855 | 0.778 | 0.886 | 0.843 | – | 0.789 | 0.653
14 | NCI-H522 | 0.636 | 0.688 | 0.809 | 0.655 | – | 0.565 | 0.658 | 0.681 | 0.589 | – | – | – | – | 0.467 | 0.575 | 0.572 | 0.518 | – | – | –
15 | ABC-1 | – | – | – | – | 0.532 | 0.321 | 0.706 | 0.702 | 0.477 | 1.06 | 1.23 | 0.88 | 0.838 | 0.882 | – | 0.781 | 0.9 | – | 0.983 | –
16 | NCI-H1299 | – | – | – | – | – | – | – | – | – | 1.08 | 1.11 | 1.03 | 1.04 | 0.99 | 0.93 | 0.967 | 0.965 | – | 0.952 | 1.06
17 | NCI-H1648 | 0.307 | 0.256 | 0.339 | 0.233 | 0.266 | 0.306 | 0.289 | 0.288 | 0.268 | – | – | – | – | 0.466 | 0.588 | 0.769 | 0.28 | – | – | –
18 | NCI-H2342 | 0.722 | 0.65 | 0.676 | 0.629 | 0.552 | 0.503 | 0.506 | 0.562 | 0.55 | – | – | – | – | 0.405 | 0.398 | 0.433 | 0.348 | 0.706 | 0.406 | –
19 | NCI-H1563 | – | – | – | – | 0.716 | 0.654 | 0.772 | 0.715 | 0.715 | 0.848 | 0.795 | 0.961 | 0.898 | – | – | – | – | – | – | 0.951
20 | EBC-1 | – | – | – | – | – | – | – | – | – | 0.766 | 0.889 | 0.801 | 0.695 | 0.78 | 0.703 | 0.759 | 0.489 | – | 0.736 | 0.826
21 | A549 | – | – | – | – | – | – | – | – | – | 0.528 | 0.755 | 0.665 | 0.516 | 0.217 | 0.376 | 0.364 | 0.269 | – | – | 0.609
22 | NCI-H1623 | – | – | – | – | 0.377 | 0.367 | 0.407 | 0.387 | 0.246 | – | – | – | – | – | – | – | – | – | – | –
